Laboratory results published in US20080026996A1, “Selective Vpac2 Receptor Reptide Agonists” (ELI LILLY AND COMPANY, priority 2004, published 2008).
Where a SMILES comes first, the peptide text is derived from it. Where no end group is shown, it is not given here. [ ]: non-standard residue; d: D form. The star is where a group is joined. Hexanoyl = CCCCCC(=O)*; Aib = CC(C)(N)C(=O)O

What was measured:
[1] = target: T1, human VPAC2 (Homo sapiens, UniProt P41587); assay: Alpha screen cAMP in vitro potency, human VPAC2 receptor; assay type: cell-based; conditions: cAMP generation; single result from two analyses performed in a single run; read-out: Human VPAC2 Receptor: Alpha Screen EC50
T1 construct: expressed in transfected cells
T1 sequence (P41587 24-438): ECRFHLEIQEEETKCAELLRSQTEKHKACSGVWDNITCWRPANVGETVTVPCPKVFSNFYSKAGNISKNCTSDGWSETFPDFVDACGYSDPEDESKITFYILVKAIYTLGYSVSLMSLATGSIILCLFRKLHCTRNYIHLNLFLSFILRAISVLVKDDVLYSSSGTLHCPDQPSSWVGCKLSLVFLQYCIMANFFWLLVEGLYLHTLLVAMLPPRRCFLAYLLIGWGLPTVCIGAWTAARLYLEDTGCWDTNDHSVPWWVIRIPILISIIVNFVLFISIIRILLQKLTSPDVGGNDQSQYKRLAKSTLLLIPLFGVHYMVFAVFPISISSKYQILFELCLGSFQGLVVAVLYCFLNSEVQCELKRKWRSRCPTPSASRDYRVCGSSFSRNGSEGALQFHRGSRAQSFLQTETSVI
Description: Alpha screen: Cells are washed in the culture flask once with PBS. Then, the cells are rinsed with enzyme free dissociation buffer. The dissociated cells are removed. The cells are then spun down and washed in stimulation buffer. For each data point, 50,000 cells suspended in stimulation buffer are used. To this buffer, Alpha screen acceptor beads are added along with the stimuli. This mixture is incubated for 60 minutes. Lysis buffer and Alpha screen donor beads are added and are incubated for 60 to 120 minutes. The Alpha screen signal (indicative of intracellular cAMP levels) is read in a suitable instrument (e.g. AlphaQuest from Perkin-Elmer). Steps including Alpha screen donor and acceptor beads are performed in reduced light.

[2] = target: T2, human PAC1 (Homo sapiens, UniProt P41586); assay: Filter binding assay, membranes of cells transiently transfected with human PAC1, 125I-labeled PACAP-27 tracer (Table 2); design: expressed in transfected cells; conditions: read-out: Human PAC1 Receptor Binding
T2 sequence (P41586 21-468): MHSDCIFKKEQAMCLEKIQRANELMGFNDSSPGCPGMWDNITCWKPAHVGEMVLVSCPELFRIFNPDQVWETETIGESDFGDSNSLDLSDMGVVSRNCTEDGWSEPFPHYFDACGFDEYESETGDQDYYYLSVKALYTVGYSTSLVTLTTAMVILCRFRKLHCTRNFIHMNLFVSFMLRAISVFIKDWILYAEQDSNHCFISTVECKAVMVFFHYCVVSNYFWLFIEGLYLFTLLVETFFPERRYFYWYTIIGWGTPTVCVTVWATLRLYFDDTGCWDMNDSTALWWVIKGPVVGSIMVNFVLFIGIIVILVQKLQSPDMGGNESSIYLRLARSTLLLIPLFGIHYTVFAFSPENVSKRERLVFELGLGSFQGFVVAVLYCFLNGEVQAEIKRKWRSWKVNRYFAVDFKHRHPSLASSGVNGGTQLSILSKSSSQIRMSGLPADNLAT
Description: (§1) For this assay, the solutions and equipment include:
(§2) Presoak solution: 0.5% Polyethyleneamine in Aqua dest.
(§3) Buffer for flushing filter plates: 25 mM HEPES pH 7.4
(§4) Blocking buffer: 25 mM HEPES pH 7.4; 0.2% protease free BSA
(§5) Assay buffer: 25 mM HEPES pH 7.4; 0.5% protease free BSA
(§6) Dilution and assay plate: PS-Microplate, U form
(§7) Filtration Plate Multiscreen FB Opaque Plate; […] Type B Glasfiber filter
(§8) In order to prepare the filter plates, aspirate the presoak solution by vacuum filtration. Flush the plates twice with 200 μL flush buffer. Add 200 μL blocking buffer to the filter plate. The filter plate is then incubated […] for 1 hour at room temperature.
(§9) Fill the assay plate with 25 μL assay buffer, 25 μL membranes (2.5 μg) suspended in assay buffer, 25 μL compound (agonist) in assay buffer, and 25 μL tracer (about 40000 cpm) in assay buffer. Incubate the filled plate for 1 hour with shaking.
(§10) Conduct the transfer from assay plate to filter plate. Aspirate the blocking buffer by vacuum filtration and wash two times with flush buffer. Transfer 90 μL from the assay plate to the filter plate. Aspirate the 90 μL transferred from assay plate and wash three times with 200 μL flush buffer. Remove the plastic support. Dry for 1 hour at 60° C. Add 30 μL Microscint. Perform the count.

[3] = target: T1, human VPAC2; assay: Filter binding assay, membranes of stable VPAC2 cell line, 125I-labeled VIP tracer (Table 2); conditions: read-out: Human VPAC2 Receptor Binding
Description: as §1, §2, §3, §4, §5, §6, §7, §8, §9, §10

[4] = target: T3, human VPAC1 (Homo sapiens, UniProt P32241); assay: Filter binding assay, membranes of cells transiently transfected with human VPAC1, 125I-labeled VIP tracer (Table 2); design: expressed in transfected cells; conditions: read-out: Human VPAC1 Receptor Binding
T3 sequence (P32241 31-457): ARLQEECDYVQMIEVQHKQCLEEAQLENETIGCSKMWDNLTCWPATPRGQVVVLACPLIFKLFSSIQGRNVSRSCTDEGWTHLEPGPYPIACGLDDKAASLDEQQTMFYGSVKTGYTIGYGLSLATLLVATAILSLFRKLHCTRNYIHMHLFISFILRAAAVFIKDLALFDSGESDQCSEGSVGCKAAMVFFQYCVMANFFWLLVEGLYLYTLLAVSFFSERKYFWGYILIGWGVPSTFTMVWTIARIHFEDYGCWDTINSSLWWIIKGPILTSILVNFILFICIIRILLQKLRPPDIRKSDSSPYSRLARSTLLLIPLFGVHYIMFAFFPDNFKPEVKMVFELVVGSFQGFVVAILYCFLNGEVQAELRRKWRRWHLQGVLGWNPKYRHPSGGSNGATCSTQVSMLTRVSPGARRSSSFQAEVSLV
Description: as §1, §2, §3, §4, §5, §6, §7, §8, §9, §10

Compound	EC50 [1]	IC50 [2]	IC50 [3]	IC50 [4]
Hexanoyl-H[Aib]DAVFTDNYTRLRKQVAAKKYLQSIKNKRYGGPSSGAPPPS [Agonist P166]	0.15 nM	127 nM	0.46 nM	248 nM
Hexanoyl-HSDAVFTDNYTRLRKQVAAKKYLQLIKNKRYGGPSSGAPPPS [Agonist P114]	0.14 nM	188 nM	0.56 nM	171 nM
Hexanoyl-HSDAVFTDNYTRLKAQVAAKKYLQSIKNKRYGGPSSGAPPPS [Agonist P141]	0.72 nM	658 nM	0.64 nM	25.9 nM
Hexanoyl-HSDAVFTDNYTRLRKQVAAKKYLQSIKNSRGGPSSGAPPPS [Agonist P122]	0.14 nM	304 nM	0.17 nM	77.6 nM
Hexanoyl-HSDAVFTDNYTRLLAKVALQKYLQSIKNKRYGGPSSGAPPPS [Agonist P196]	0.23 nM	> 25000 nM	0.85 nM	453 nM
Hexanoyl-HSDAVFTDNYTRLRKQVAAKKYLQQIKNKRYGGPSSGAPPPS [Agonist P124]	0.09 nM	264 nM	0.2 nM	211 nM
Hexanoyl-HSDAVFTDNYTRLLAKLALQKYLQSIKNKRYGGPSSGAPPPC [Agonist P164]	0.11 nM	9370 nM	2.46 nM	> 3000 nM
Hexanoyl-HSDAVFTDNYTRLRKQVAAKKYLQNIKNKRYGGPSSGAPPPS [Agonist P125]	0.14 nM	300 nM	0.19 nM	179 nM
Hexanoyl-HSDAVFTDNYTRLRKQVAAKKYLQSIKNKRGGPSSGAPPPS [Agonist P123]	0.12 nM	265 nM	0.26 nM	166 nM
CCCCCC(=O)N[C@@H](Cc1c[nH]cn1)C(=O)N[C@@H](CO)C(=O)N[C@@H](CC(=O)O)C(=O)N[C@@H](C)C(=O)N[C@H](C(=O)N[C@@H](Cc1ccccc1)C(=O)N[C@H](C(=O)N[C@@H](CC(=O)O)C(=O)N[C@@H](CC(N)=O)C(=O)N[C@@H](Cc1ccc(O)cc1)C(=O)N[C@H](C(=O)N[C@@H](CCCNC(=N)N)C(=O)N[C@@H](CC(C)C)C(=O)N[C@@H](CCCNC(=N)N)C(=O)N[C@@H](CCCCN)C(=O)N[C@@H](CCC(N)=O)C(=O)N[C@H](C(=O)N[C@@H](C)C(=O)N[C@@H](C)C(=O)N[C@@H](CCCCN)C(=O)N[C@@H](CCCCN)C(=O)N[C@@H](Cc1ccc(O)cc1)C(=O)N[C@@H](CC(C)C)C(=O)N[C@@H](CCC(N)=O)C(=O)N[C@@H](CO)C(=O)N[C@H](C(=O)N[C@@H](CCCCN)C(=O)N[C@@H](CC(N)=O)C(=O)NCC(=O)N[C@@H](CCCNC(=N)N)C(=O)N1CCC[C@H]1C(=O)N[C@@H](CO)C(=O)N[C@@H](CO)C(=O)NCC(=O)N[C@@H](C)C(=O)N1CCC[C@H]1C(=O)N1CCC[C@H]1C(=O)N1CCC[C@H]1C(=O)N[C@@H](CO)C(=O)O)[C@@H](C)CC)C(C)C)[C@@H](C)O)[C@@H](C)O)C(C)C [Agonist P271] (Hexanoyl-HSDAVFTDNYTRLRKQVAAKKYLQSIKNGRPSSGAPPPS-OH; C-terminus assumed)	0.12 nM	352 nM	0.14 nM	67.6 nM
